Source: patent publication US8802433B2, “Macrophage phagocytosis-activating composition and/or composition promoting cytokine production in macrophages” (Aureo Co., Ltd., priority 2009, dated 2014)

Columns and labels:
[1] = tested on: macrophage-like cells; experiment: TNF-α secretion from macrophage-like cells (ELISA); assay type: cell-based, human; settings: added independently or in combination; ELISA of culture fluid
Excerpt: Since the increase in phagocytosis of macrophage-like cells by the Aureobasidium culture fluid or Compound 1 was inferred to be the result of activity induction in the macrophage-like cells, it was attempted to see if it is true. Specifically, regarding TNF-α, a type of cytokines released by activity induction, how much this substance was secreted into a culture fluid of the macrophage-like cells to which the Aureobasidium culture fluid, Compound 1, or the Aureobasidium culture fluid plus Compound 1 was added was measured by ELISA according to an ordinary method.

[2] = tested on: THP-1 cells differentiated into macrophage-like cells; experiment: Ability of macrophage-like cells to phagocytose polystyrene beads; assay type: cell-based, human; settings: 500-fold vs 1000-fold dilution; 1 μM vs 10 μM
Description: THP-1 cells (refer to FIG. 1 (A)) were seeded in a 24-well plate (Becton Dickinson Labware, Franklin Lakes, N.J.) at 2×10^5 cells/mL per well, and phorbol 12-myristate 13-acetate (PMA) (Wako) was added to each well so as to have a final concentration of 160 nM, and incubated at 37° C. under 5% CO2 for 72 hours, to give macrophage-like cells (refer to FIG. 1 (B)). After incubation, the cells were washed twice with sterilized PBS in order to remove undifferentiated THP-1 cells, and a fresh medium was added thereto, and the mixture was subjected to an experiment. The THP-1 cells differentiated into macrophage-like cells were prepared in a 24-well plate by the method of Test Example 1. Thereto were each added 500-fold and 1000-fold dilutions as final concentration of an Aureobasidium culture fluid, and the mixture was incubated for 4 hours. […] Thereafter, beads with a diameter of 10 μm were added to each well at a final concentration of 2 μL/mL (Trade name “Polybeads dyed violet” manufactured by Polysciences, Inc.), and the mixture was incubated for 3 hours to allow phagocytosis of the beads by the cells. After the incubation, each well was washed 3 times with sterilized PBS in order to remove beads that were not phagocyted. […] The number of beads phagocyted by the macrophage-like cells was measured with a phase contrast microscope. […]

[3] = tested on: THP-1 cells differentiated into macrophage-like cells; experiment: Cytokine gene expression in macrophage-like cells (RT-PCR, agarose gel electrophoresis); assay type: cell-based, human; settings: 7 hours, compared to group a (control)
Description: Regarding TNF-α, IL-6, IL-12B, and IL-18, cytokines released when macrophage-like cells underwent activity induction, how much mRNA for these substances expressed in the macrophage-like cells to which the Aureobasidium culture fluid, Compound 1, or the Aureobasidium culture fluid plus Compound 1 was added was measured by RT-PCR according to an ordinary method. Specifically, first, the THP-1 cells differentiated into macrophage-like cells by the method of Test Example 1 were washed twice with PBS to remove undifferentiated THP-1 cells, and then divided into 9 groups, group a, group b, group c, group d, group e, group f, group g, group h, and group i. Subsequently, the Aureobasidium culture fluid and/or Compound 1 was added to each group so as to have the final concentrations as follows, and the mixture was incubated for 7 hours. Next, each group was washed with PBS, thereafter, 1 mL of Trizol (Invitrogen) was added to each, and the mixture was well suspended and left at room temperature for 5 minutes. […] After left at room temperature for 2 minutes, the mixture was centrifuged at 12000×g at 4° C. for 10 minutes. After centrifugation, 400 μL of the upper layer was collected and transferred to a new Eppendorf tube for 1.5 mL, and 500 μL of 2-propanol (Wako) was added and stirred, and then left at room temperature for 5 minutes. […] Thereafter, the mixture was centrifuged at 12000×g at 4° C. for 10 minutes. After centrifugation, the upper layer was discarded, 75% ethanol was added to the precipitate, and the mixture was centrifuged at 12000×g at 4° C. for 10 minutes. After centrifugation, the upper layer was discarded, and the resultant was suspended in 20 μL of milliQ water, thereby collecting the total mRNA. Subsequently, using the total mRNA of each group as a template, RT-PCR was performed using TaKaRa RNA PCR Kit (AMV) Ver 3.0 (TaKaRa), to prepare a template cDNA of each sample. The RT-PCR reaction solution composition and RT-PCR reaction conditions are as described below. […] RT reaction conditions: after reaction at 42° C. for 30 minutes, respective reactions at 95° C. for 5 minutes and 5° C. for 5 minutes were performed for 1 cycle using a thermal cycler (Bio Flux). Subsequently, PCR was performed using the template cDNA of each group as a template, to amplify each cDNA of TNF-α, IL-6, IL-12B, IL-18, and glyceraldehyde-3-phosphate dehydrogenase (GAPDH). Primers, the PCR reaction solution composition, and PCR reaction conditions are as described below. PCR reaction solution composition: 5×PCR buffer 10 μL, milliQ 28.75 μL, Ex Taq 0.25 μL, sense primer 0.5 μL, antisense primer 0.5 μL, whole amount of template cDNA of each sample. PCR reaction conditions: after reaction at 94° C. for 2 minutes, with respective reactions at 94° C. for 30 seconds, 60° C. for 30 seconds, and 72° C. for 1 minute as 1 cycle, 35 cycles were performed. Thereafter, the amount of PCR reaction product was confirmed by performing agarose gel electrophoresis according to the conventional method, whereby the expression levels of mRNA for TNF-α, IL-6, IL-12B, IL-18, and glyceraldehyde-3-phosphate dehydrogenase (GAPDH) were confirmed.

[4] = tested on: Jurkat cells; experiment: Exposure of phosphatidylserine in apoptotic Jurkat cells (Annexin V / propidium iodide, flow cytometry); assay type: cell-based, human; settings: Jurkat cells exposed to 250 μM 5-FU (250 μM or 500 μM tested), 24 hours
Description: Whether the cytotoxicity of 5-FU on Jurkat cells was caused by apoptosis was studied. In early apoptosis, phosphatidylserine (PS) localized on the inside of cell membrane exposes to the outside. PS is a molecule also relating to the recognition and phagocytosis of apoptotic cells by macrophages. The PS exposure is measured, whereby induction of early apoptosis can be confirmed. In late apoptosis, the cell membrane breaks, and the internal components leak out thereof. Therefore, the cells are combined with propidium iodide (PI) which is a membrane impermeable fluorescent dye, whereby the late apoptotic cells and early apoptotic cells can be clearly separated (refer to FIG. 3).

[5] = in vitro; assay type: cell-based; settings: human
Description: In the following Test Examples, the human monocytic leukemia cell line THP-1 or human leukemia T cell line, Jurkat cell line was incubated at 37° C. under 5% CO2 for culture in the RPMI 1640 medium (containing 10% fetal bovine serum (FBS), 75 mg/L kanamycin, and 3.5 μL/L 2-mercaptoethanol).
In order to study the cytotoxicity of 5-FU on Jurkat cells, 5-FU was studied by MTT method. Jurkat cells prepared as 2.0×10^5 cells/mL were placed in a 96-well plate (Corning). 5-FU was added thereto so as to have final concentrations of 0, 10, 100, and 1000 μM, and the cells were then exposed thereto in a CO2 incubator at 37° C. for 24 hours. At the time point of the exposure over 23 hours, 10 μL of 3-[4,5-dimethylthiazol-2-yl]-2,5-diphenyltet-razolium bromide (MTT solution) (Wako) was added to each well, and the cells were then exposed thereto at 37° C. for 1 hour. After the exposure, the mixture was centrifuged at 1200 rpm for 5 minutes, the supernatant was discarded, 100 μL per well of DMSO was added, and the mixture was measured for absorbance at 570 nm using a microplate reader. […] Therefore, DMSO was added to dissolve the formazan precipitate, and the absorbance of the solution was measured at 570 nm. When the cells are alive, formazan is produced, and thus the solution can be measured at 570 nm.

Row | SMILES | TNF-α secreted as compared to the case of adding nothing [1] | working concentration giving higher phagocytosis of polystyrene beads [2] | expression level of mRNA for IL-12B ([3]; group b: Compound 1 1 μM) | expression level of mRNA for IL-18 ([3]; group b: Compound 1 1 μM) | expression level of mRNA for TNF-α ([3]; group b: Compound 1 1 μM) | expression level of mRNA for IL-6 ([3]; group c: Compound 1 10 μM) | expression level of mRNA for IL-12B ([3]; group c: Compound 1 10 μM) | expression level of mRNA for IL-18 ([3]; group c: Compound 1 10 μM) | PS exposure (early apoptosis) [4] | IC50 at 24 h [5]
1 | CCOCc1nc2c(N)nc3ccccc3c2n1CC(C)(C)O [Compound 1, 4-Amino-2-(ethoxymethyl)-a,a-dimethyl-1H-imidazo[4,5-c]quinoline-1-ethanol] | larger amount | higher for 1 μM | increased | increased | increased | increased | increased | increased | – | –
2 | O=c1[nH]cc(F)c(=O)[nH]1 [Compound 5-FU, 5-fluorouracil] | – | – | – | – | – | – | – | – | much PS exposure | 450 µM
